Laboratory results: patent US11963953B2, “Deuterated compounds for restoring mutant p53 function” (PMV Pharmaceuticals, Inc., priority 2022, dated 2024)

Experiments:
p53 Y220C = target: T1, p53 Y220C (Homo sapiens, UniProt P04637, Y220C); assay: In vitro DNA binding activity assay (HTRF / TR-FRET) of recombinant His-tagged p53 Y220C DNA binding domain with biotin-labeled consensus DNA; assay type: biochemical; settings: concentration required to increase DNA binding activity of p53 Y220C by 50%
T1 construct: made in house; host or cells: E. coli
Experimental: The ability of a compound of the disclosure to stabilize p53 Y220C and increase the DNA binding activity of p53 Y220C was measured by a homogeneous time-resolved fluorescence (HTRF) assay. Recombinant His-tagged p53 Y220C used in the HTRF assay was expressed in the bacterium E. coli. The recombinant protein was a truncation mutant containing only amino acids 94-312 of p53, which encompassed the DNA binding domain (DBD) of p53 (SEQ ID NO.: 1). The His-tagged p53 Y220C was tested for DNA binding ability with a consensus sequence of DNA (DNA duplex with a sequence of 5 ¢-[…]-3 ¢; SEQ ID NO.: 2). SEQ ID NO.: 2 was then conjugated with a biotin label and used in the activity assay.
The binding of the recombinant His-tagged p53 Y220C protein and the biotin-labeled consensus DNA was measured using fluorescence resonance energy transfer (FRET). For the FRET assay, the binding between the p53 mutant and the DNA sequence was measured by detecting the fluorescence of the interaction between an anti-His antibody conjugated to allophycocyanin (APC) and streptavidin conjugated to europium to detect the biotin-labeled DNA.
The test compounds were prepared as 4.5 mM stock solutions in dimethyl sulfoxide (DMSO). The compounds of the disclosure were used to test the stabilization of p53 Y220C and increase in DNA binding activity of p53 Y220C. The stock solutions were then serially diluted 3-fold in DMSO, and 1.2 μL of the diluted solutions was added to each well of a 384-well polypropylene black plate. 30 μL of a 181 nM solution of the recombinant His-tagged p53 Y220C protein and 12.1 nM of APC conjugated anti-His tag antibody in ice-cold Assay Buffer 1 (50 mM Tris-HCl, pH 7.4; 75 mM KCl; 0.75 mM DTT; and 0.2 mg/mL bovine serum albumin (BSA) was added to each well containing the test compounds.
As a background control, […] of Assay Buffer 1 containing 12.1 nM of APC anti-His antibody was also added into a second set of serially-diluted compound plates. […] The assay signals were monitored by reading excitation at 340 nm, and emission fluorescence at 615 nm and 665 nm on a plate reader.
Normalized time-resolved fluorescence resonance energy transfer (TR-FRET) assay signal (Rn) was calculated by the formula: Rn=[(A-Ba-CD)/(D-Bd)](Dc-Bd) where A was the fluorescence intensity of the sample at 665 nm; D was the fluorescence intensity of the sample at 615 nm; Ba and Bd were plate background readings at 665 nm and 615 nm, respectively; and Dc was the fluorescence intensity of 1.8 nM Eu-SA in the assay buffer at 615 nm.
The cross-talk factor (C) was determined by the following formula: C═(Ac—Ba)/(Dc-Bd) where Ac was the fluorescence intensity of 1.8 nM Eu-labeled anti-FLAG antibody in the assay buffer at 665 nm. […] The SC150 values were calculated using either Prism™ or ActivityBase™.

[1] = Pharmacokinetic analysis after single oral administration to male cynomolgus monkeys, with plasma levels of parent and glucuronidation metabolites; settings: cynomolgus monkey, in vivo, 25 mg/kg
Experimental: The pharmacokinetics (PK) of a deuterated compound and a comparator compound were measured following a 2-phase single oral (PO) administration to male cynomolgus monkeys. Compound and metabolite levels were monitored for up to 48 hours following dosing.
A group of 3 non-naïve male cynomolgus monkeys were used in this 2-phase study with a 5-day washout period between each phase. Animals in Phases 1 or 2 were administered the compounds by single oral administration at 25 mg/kg. The vehicle used for the oral studies was 2% (w/v) hydroxypropylcellulose (HPC) w/v in water [“vehicle” ]. Administration was PO in fasted (overnight) animals. […] The body weights of the animals were in the range from 2.28 to 3.32 kg for males on the dosing day of Phase 1. All animals received a single oral gavage administration in each Phase.
Compound formulations were prepared in accordance with the following procedure: 257.0 mg of Compound C (4-[3-[4-[[(3S,4R)-3-fluoro-1-methyl-4-piperidyl]amino]-1-(2,2,2-trifluoroethyl)indol-2-yl]prop-2-ynylamino]-N-methyl-3-(methoxy)benzamide) was added to a pre-calibrated beaker, manually mixed with 1 mL of vehicle, stirred for 5 min to generate homogenous opaque suspension. An additional 40 mL of vehicle was added with manual mixing, and stirred for 5 min to generate a homogenous opaque suspension. An additional 9.218 mL of vehicle was added, and stirred overnight to generate a homogenous opaque suspension. 260.3 mg of Compound 3 (4-[3-[4-[[(3S,4R)-3-fluoro-1-methyl-4-piperidyl]amino]-1-(2,2,2-trifluoroethyl)indol-2-yl]prop-2-ynylamino]-N-methyl-3-(trideuteriomethoxy)benzamide) was added to a pre-calibrated beaker, manually mixed test article with 49.978 mL of vehicle, stirred for 30 min to generate a homogenous opaque suspension. Formulations were stored at room temperature for up to 15 days after preparation.
The detailed dosing and sampling regimens are described in the following table.
The concentrations of the compounds in all dosing solutions were determined by UPLC-UV [ACQUITY UPLC, ACQUITY UPLC BEH C8 1.7 m 2.1×100 mm Column, Mobile phase A: 0.1% FA & 2 mM HCOONH4 in water/ACN (v:v, 95:5), Mobile phase B: 0.1% FA & 2 mM HCOONH4 in ACN/water (v:v, 95:5)]. Three aliquots were taken from the bottom, middle and top regions of PO dosing solutions.
Plasma samples were collected at 0.25, 0.5, 1, 2, 4, 8, 12, 24 and 48 hours post-dose in Phases 1 and 2. Blank Plasma: Whole blood was collected from available stock animal into commercially available tubes containing K2-EDTA on wet ice and processed for plasma. The plasma was pooled to serve as blank monkey plasma. PK plasma: Approximately 0.5 mL of blood was collected at each time point via peripheral vessel from each study animal. The actual time for each sample collection was recorded. The deviations on sampling time were less than 1 minute for the time points pre-dose through 1 hour post-dose, and less than 5% of the nominal time for time points after 1 hour post-dose. All blood samples were transferred into commercial tube (Jiangsu Kangjian medical supplies Co., Ltd.) containing K2-EDTA (0.85-1.15 mg) and placed on wet ice until processed for plasma. Plasma samples were prepared within 1 hour of collection by centrifuging the blood samples at approximately 2-8° C., 3200×g for 10 minutes. Plasma samples of about 0.1 mL×2 aliquots (one for BA, and the other one for back up) for each time point were transferred into labeled polypropylene micro-centrifuge tubes and stored frozen in a freezer set to be maintained at −60° C. or lower until LC-MS/MS analysis. Concentrations of the compounds and metabolite in plasma samples were determined by a liquid chromatography tandem mass spectrometry (LC-MS/MS) method [Triple Quad 6500 Plus, ESI (+) ionization mode, MRM detection mode]. The plasma concentration of the compounds and metabolites in study animals was subjected to a non-compartmental pharmacokinetic analysis by using the Phoenix WinNonlin software (version 6.3 or above, Pharsight). […]

[2H]C([2H])([2H])Oc1cc(S(C)(=O)=O)ccc1NCC#Cc1cc2c(N[C@@H]3CCN(C([2H])([2H])[2H])C[C@@H]3F)cccc2n1CC(F)(F)F (racemic) [Compound 4, rac-N-[(3S,4R)-3-fluoro-1-(trideuteriomethyl)-4-piperidyl]-2-[3-[4-methylsulfonyl-2-(trideuteriomethoxy)anilino]prop-1-ynyl]-1-(2,2,2-trifluoroethyl)indol-4-ylamine]
SC150 (p53 Y220C): +++ (+++ = 0 nM < SC150 < 10 nM)

[2H]C([2H])([2H])Oc1cc(S(C)(=O)=O)ccc1NCC#Cc1cc2c(N[C@H]3CCN(C)C[C@H]3F)cccc2n1CC(F)(F)F (racemic) [Compound 10, Rac-N-((3R,4S)-3-fluoro-1-methylpiperidin-4-yl)-2-(3-((2-(methoxy-d3)-4-(methylsulfonyl)phenyl)amino)prop-1-yn-1-yl)-1-(2,2,2-trifluoroethyl)-1H-indol-4-amine]
SC150 (p53 Y220C): +++ (+++ = 0 nM < SC150 < 10 nM)

[2H]C([2H])([2H])Oc1cc(C(=O)NC)ccc1NCC#Cc1cc2c(N[C@@H]3CCN(C)C[C@@H]3F)cccc2n1CC(F)(F)F [Compound 3, 4-[3-[4-[[(3S,4R)-3-fluoro-1-methyl-4-piperidyl]amino]-1-(2,2,2-trifluoroethyl)indol-2-yl]prop-2-ynylamino]-N-methyl-3-(trideuteriomethoxy)benzamide]
% of total analyte area, analyte Parent [1]: 42.0% | AUC0-24 % Rel. to Cpd C value, analyte Parent [1]: 160% | AUC(0-inf) [1]: 118 µg·h/mL | AUCExtra [1]: 0.599% | Cmax [1]: 10000 ± 4180 ng/mL | Tmax [1]: 2 h | half-life [1]: 6.37 h | increase in AUC over Compound C [1]: about 60% | reduction in glucuronidation metabolite (first named) [1]: 70% | reduction in glucuronidation metabolite (second named) [1]: 10% | AUC(0-t) ([1]; AUC0-24): 107 ± 29.2 µg·h/mL | AUC(0-t) ([1]; AUC0-24, analyte Parent): 107 µg·h/mL | AUC(0-t) ([1]; AUC0-last): 118 µg·h/mL

[2H]C([2H])([2H])NC(=O)c1ccc(NCC#Cc2cc3c(N[C@@H]4CCN(C)C[C@@H]4F)cccc3n2CC(F)(F)F)c(OC)c1 [Compound 5, 4-[3-[4-[[(3S,4R)-3-fluoro-1-methyl-4-piperidyl]amino]-1-(2,2,2-trifluoroethyl)indol-2-yl]prop-2-ynylamino]-3-methoxy-N-(trideuteriomethyl)benzamide]
SC150 (p53 Y220C): ++ (++ = 10 nM < SC150 < 50 nM)

[2H]C([2H])([2H])NC(=O)c1ccc(NCC#Cc2cc3c(N[C@@H]4CCN(C)C[C@@H]4F)cccc3n2CC(F)(F)F)c(OC([2H])([2H])[2H])c1 [Compound 6, 4-[3-[4-[[(3S,4R)-3-fluoro-1-methyl-4-piperidyl]amino]-1-(2,2,2-trifluoroethyl)indol-2-yl]prop-2-ynylamino]-3-(trideuteriomethoxy)-N-(trideuteriomethyl)benzamide]
SC150 (p53 Y220C): +++ (+++ = 0 nM < SC150 < 10 nM)
